From patent US20040156869A1, “2-substituted quinazolin-4-ylamine analogues” (Neurogen Corporation, priority 2002, published 2004)
pKi: −log10 of the molar value.

molecular target: human capsaicin receptor (VR1) (Homo sapiens, UniProt Q8NER1); assay: Capsaicin receptor binding assay ([3H]RTX competition, VR1-transfected HEK293 membranes)
Sequence (Q8NER1 whole entry): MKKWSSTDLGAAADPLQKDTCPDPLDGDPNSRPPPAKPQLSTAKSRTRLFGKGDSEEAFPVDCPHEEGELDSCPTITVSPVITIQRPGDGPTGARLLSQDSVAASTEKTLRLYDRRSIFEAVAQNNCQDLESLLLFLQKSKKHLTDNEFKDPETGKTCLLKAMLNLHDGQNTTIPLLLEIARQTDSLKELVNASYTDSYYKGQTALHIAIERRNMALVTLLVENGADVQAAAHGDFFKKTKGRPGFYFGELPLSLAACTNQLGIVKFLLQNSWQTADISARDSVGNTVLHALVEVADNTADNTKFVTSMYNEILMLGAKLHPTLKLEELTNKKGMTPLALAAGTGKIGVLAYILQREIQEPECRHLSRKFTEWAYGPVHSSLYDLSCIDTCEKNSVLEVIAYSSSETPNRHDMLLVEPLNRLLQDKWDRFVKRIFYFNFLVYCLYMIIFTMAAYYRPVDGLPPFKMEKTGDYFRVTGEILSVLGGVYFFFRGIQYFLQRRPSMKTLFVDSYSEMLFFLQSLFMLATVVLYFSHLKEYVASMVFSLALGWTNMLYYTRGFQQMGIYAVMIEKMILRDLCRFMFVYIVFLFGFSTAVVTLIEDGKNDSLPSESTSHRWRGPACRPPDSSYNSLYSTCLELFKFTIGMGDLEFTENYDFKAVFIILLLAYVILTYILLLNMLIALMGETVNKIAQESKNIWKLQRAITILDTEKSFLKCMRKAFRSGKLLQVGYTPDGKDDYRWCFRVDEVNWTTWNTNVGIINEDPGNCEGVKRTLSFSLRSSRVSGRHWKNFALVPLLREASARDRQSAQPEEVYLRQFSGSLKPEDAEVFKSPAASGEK

pKi, > 6.00:
CCCNC(=O)c1nc(Nc2ccc(C(F)(F)F)cc2)c2ccc(-c3ncccc3C(F)(F)F)nc2n1 [Compound 452, 4-(4-Trifluoromethyl-phenylamino)-7-(3-trifluoromethyl-pyridin-2-yl)-pyrido[2,3-d]pyrimidine-2-carboxylic acid propylamide]
CC(C)(C)c1ccc(Nc2nc(CO)nc3cc(-c4ncccc4C(F)(F)F)ccc23)cc1 [Compound 155, [4-(4-tert-Butyl-phenylamino)-7-(3-trifluoromethyl-pyridin-2-yl)-quinazolin-2-yl]-methanol]
COCc1nc(Nc2ccc(C(C)(C)C#N)cc2)c2ccc(-c3ncccc3Cl)nc2n1 [Compound 62, 2-{4-[7-(3-Chloro-pyridin-2-yl)-2-methoxymethyl-pyrido[2,3-d]pyrimidin-4-ylamino]-phenyl}-2-methyl-propionitrile]
CN(C)CC(C)(C)COCc1nc(Nc2ccc(C(F)(F)F)cc2)c2ccc(-c3ncccc3C(F)(F)F)cc2n1 [Compound 123, [2-(3-Dimethylamino-2,2-dimethyl-propoxymethyl)-7-(3-trifluoromethyl-pyridin-2-yl)-quinazolin-4-yl]-(4-trifluoromethyl-phenyl)-amine]
CC(C)COCc1nc(Nc2ccc(C(F)(F)F)cc2)c2ccc(-c3ncccc3C(F)(F)F)nc2n1 [Compound 164, [2-Isobutoxymethyl-7-(3-trifluoromethyl-pyridin-2-yl)-pyrido[2,3-d]pyrimidin-4-yl]-(4-trifluoromethyl-phenyl)-amine]
COCc1nc(Nc2ccc(C(C)C)cc2)c2ccc(-c3nccnc3Cl)nc2n1 [Compound 237, [7-(3-Chloro-pyrazin-2-yl)-2-methoxymethyl-pyrido[2,3-d]pyrimidin-4-yl]-(4-isopropyl-phenyl)-amine]
O=C(O)[C@@H]1CCCN1Cc1nc(Nc2ccc(C(F)(F)F)cc2)c2ccc(-c3ncccc3C(F)(F)F)cc2n1 [Compound 730, (S)-1-[4-(4-Trifluoromethyl-phenylamino)-7-(3-trifluoromethyl-pyridin-2-yl)-quinazolin-2-ylmethyl]-pyrrolidine-2-carboxylic acid]
O=S1(=O)CCCCN1Cc1nc(Nc2ccc(C(F)(F)F)cc2)c2ccc(-c3ncccc3C(F)(F)F)cc2n1 [Compound 756, [2-(1,1-Dioxo-1λ^6-[1,2]thiazinan-2-ylmethyl)-7-(3-trifluoromethyl-pyridin-2-yl)-quinazolin-4-yl]-(4-trifluorornethyl-phenyl)-amine]
CC(C)c1ccc(Nc2nc(CN3CCO[C@@H](C)C3)nc3cc(-c4ncccc4Cl)ccc23)cc1 [Compound 648, (S)-[7-(3-Chloro-pyridin-2-yl)-2-(2-methyl-morpholin-4-ylmethyl)-quinazolin-4-yl]-(4-isopropyl-phenyl)-amine]
CCN(CCc1nc(Nc2ccc(C(F)(F)F)cc2)c2ccc(-c3ncccc3C(F)(F)F)cc2n1)C(C)C [Compound 414, [2-[(Isopropyl-ethyl-amino)-ethyl]-7-(3-trifluoromethyl-pyridin-2-yl)-quinazolin-4-yl]-(4-trifluoromethyl-phenyl)-amine]
CC(C)CCNCc1nc(Nc2ccc(C(F)(F)F)cc2)c2ccc(-c3ncccc3C(F)(F)F)cc2n1 [Compound 537, [2-[(3-Methyl-butylamino)-methyl]-7-(3-trifluoromethyl-pyridin-2-yl)-quinazolin-4-yl]-(4-trifluoromethyl-phenyl)-amine]
COCc1nc(Nc2ccc(C(C)=O)cc2)c2ncc(-c3ncccc3C(F)(F)F)cc2n1 [Compound 54, 1-{4-[2-Methoxymethyl-7-(3-trifluoromethyl-pyridin-2-yl)-pyrido[3,2-d]pyrimidin-4-ylamino]-phenyl}-ethanone]
COCCN(CCOC)CCc1nc(Nc2ccc(C(F)(F)F)cc2)c2ccc(-c3ncccc3C(F)(F)F)cc2n1 [Compound 427, [2-{2-[Bis-(2-methoxy-ethyl)-amino]-ethyl}-7-(3-trifluoromethyl-pyridin-2-yl)-quinazolin-4-yl]-(4-trifluoromethyl-phenyl)-amine]
CC1c2ccccc2CCN1CCc1nc(Nc2ccc(C(F)(F)F)cc2)c2ccc(-c3ncccc3C(F)(F)F)cc2n1 (stereo not shown) [Compound 391, [2-[2-(1-Methyl-3,4-dihydro-1H-isoquinolin-2-yl)-ethyl]-7-(3-trifluoromethyl-pyridin-2-yl)-quinazolin-4-yl]-(4-trifluoromethyl-phenyl)-amine]
CN(CCc1nc(Nc2ccc(C(F)(F)F)cc2)c2ccc(-c3ncccc3C(F)(F)F)cc2n1)Cc1cccc(F)c1 [Compound 394, [2-{2-[(3-Fluoro-benzyl)-methyl-amino]-ethyl}-7-(3-trifluoromethyl-pyridin-2-yl)-quinazolin-4-yl]-(4-trifluoromethyl-phenyl)-amine]
CC(C)c1ccc(Nc2nc(CN3CCO[C@@H](C)C3)nc3cc(-c4ncccc4C(F)(F)F)ccc23)cc1 [Compound 687, (S)-(4-Isopropyl-phenyl)-[2-(2-methyl-morpholin-4-ylmethyl)-7-(3-trifluoromethyl-pyridin-2-yl)-quinazolin-4-yl]-amine]
CCC(C)c1ccc(Nc2nc(COC)nc3nc(-c4ncccc4C(F)(F)F)ccc23)cc1 (stereo not shown) [Compound 93, (4-sec-Butyl-phenyl)-[2-methoxymethyl-7-(3-trifluoromethyl-pyridin-2-yl)-pyrido[2,3-d]pyrimidin-4-yl]-amine]
C[C@@H]1CN(Cc2nc(Nc3ccc(C(F)(F)F)cc3)c3ncc(-c4ncccc4C(F)(F)F)cc3n2)C[C@@H](C)O1 [Compound 657, (R,R)-[2-(2,6-Dimethyl-morpholin-4-ylmethyl)-7-(3-trifluoromethyl-pyridin-2-yl)-pyrido[3,2-d]pyrimidin-4-yl]-(4-trifluoromethyl-phenyl)-amine]
C[C@@H]1CN(Cc2nc(Nc3ccc(C(C)(C)C)cc3)c3ccc(-c4ccccn4)cc3n2)C[C@H](C)O1 [Compound 636, (4-tert-Butyl-phenyl)-[2-(2,6-dimethyl-morpholin-4-ylmethyl)-7-pyridin-2-yl-quinazolin-4-yl]-amine (cis)]
CC(C)COCc1nc(Nc2ccc(Cl)cc2)c2ccc(-c3ncccc3Cl)nc2n1 [Compound 260, (4-Chloro-phenyl)-[7-(3-chloro-pyridin-2-yl)-2-isobutoxymethyl-pyrido[2,3-d]pyrimidin-4-yl]-amine]
CCN(CC)CC[C@@H](C)OCc1nc(Nc2ccc(C(C)(C)C)cc2)c2ccc(-c3ncccc3C(F)(F)F)cc2n1 [Compound 145, (4-tert-Butyl-phenyl)-[2-(3-diethylamino-1-methyl-propoxymethyl)-7-(3-trifluoromethyl-pyridin-2-yl)-quinazolin-4-yl]-amine]
CN1CCN(C(=O)c2nc(Nc3ccc(C(F)(F)F)cc3)c3ccc(-c4ncccc4C(F)(F)F)nc3n2)CC1 [Compound 472, (4-Methyl-piperazin-1-yl)-[4-(4-trifluoromethyl-phenylamino)-7-(3-trifluoromethyl-pyridin-2-yl)-pyrido[2,3-d]pyrimidin-2-yl]-methanone]
CN1CCC(COCc2nc(Nc3ccc(C(F)(F)F)cc3)c3ccc(-c4ncccc4C(F)(F)F)cc3n2)CC1 [Compound 247, [2-(1-Methyl-piperidin-4-ylmethoxymethyl)-7-(3-trifluoromethyl-pyridin-2-yl)-quinazolin-4-yl]-(4-trifluoromethyl-phenyl)-amine]
CCN(CC)CCc1nc(Nc2ccc(C(F)(F)F)cc2)c2ccc(-c3ncccc3C(F)(F)F)cc2n1 [Compound 411, [2-Diethylaminoethyl-7-(3-trifluoromethyl-pyridin-2-yl)-quinazolin-4-yl]-(4-trifluoromethyl-phenyl)-amine]
CC1CCCN1Cc1cc(Nc2ccc(C(F)(F)F)cc2)c2ccc(-c3ncccc3C(F)(F)F)nc2n1 (stereo not shown) [Compound 774, [2-(2-Methyl-pyrrolidin-1-ylmethyl)-7-(3-trifluoromethyl-pyridin-2-yl)-[1,8]naphthyridin-4-yl]-(4-trifluoromethyl-phenyl)-amine]
CC(C)COCc1nc(Nc2ccc(Cl)c(F)c2)c2ccc(-c3ncccc3C(F)(F)F)nc2n1 [Compound 273, (4-Chloro-3-fluoro-phenyl)-[2-isobutoxymethyl-7-(3-trifluoromethyl-pyridin-2-yl)-pyrido[2,3-d]pyrimidin-4-yl]-amine]
OCc1nc(Nc2ccc(C(F)(F)F)cc2)c2ncc(-c3ncccc3Cl)cc2n1 [Compound 122, [7-(3-Chloro-pyridin-2-yl)-4-(4-trifluoromethyl-phenylamino)-pyrido[3,2-d]pyrimidin-2-yl]-methanol]
O=S(=O)(c1ccc(Nc2nc(CO)nc3cc(-c4ncccc4C(F)(F)F)ccc23)cc1)N1CCCCC1 [Compound 186, [4-[4-(Piperidine-1-sulfonyl)-phenylamino]-7-(3-trifluoromethyl-pyridin-2-yl)-quinazolin-2-yl]-methanol]
C[C@@H]1CN(Cc2nc(Nc3ccc(C(C)(C)C)cc3)c3cnc(-c4ccccc4C(F)(F)F)cc3n2)C[C@H](C)O1 [Compound 614, (4-tert-Butyl-phenyl)-[2-(2,6-dimethyl-morpholin-4-ylmethyl)-7-(2-trifluoromethyl-phenyl)-pyrido[4,3-d]pyrimidin-4-yl]-amine (cis)]
O=C(NCCN1CCOCC1)c1nc(Nc2ccc(C(F)(F)F)cc2)c2ccc(-c3ncccc3C(F)(F)F)nc2n1 [Compound 442, 4-(4-Trifluoromethyl-phenylamino)-7-(3-trifluoromethyl-pyridin-2-yl)-pyrido[2,3-d]pyrimidine-2-carboxylic acid (2-morpholin-4-yl-ethyl)-amide]
CC(C)COCc1nc(Nc2ccc(F)c(F)c2)c2ccc(-c3ncccc3Cl)nc2n1 [Compound 268, [7-(3-Chloro-pyridin-2-yl)-2-isobutoxymethyl-pyrido[2,3-d]pyrimidin-4-yl]-(3,4-difluoro-phenyl)-amine]
